According to ChEMBL document CHEMBL3588845, “Protozoan Parasite Growth Inhibitors Discovered by Cross-Screening Yield Potent Scaffolds for Lead Discovery” (J Med Chem, 2015):

Experiments:
[1] = system: Plasmodium falciparum; experiment: Antiparasite activity against Plasmodium falciparum D6 assessed as growth inhibition incubated for 72 hrs by SYBR green fluorescence assay; format: functional, organism-based; details: D6, 72 h
[2] = system: Trypanosoma cruzi; experiment: Antiparasite activity against Trypanosoma cruzi Tulahuen expressing beta-galactosidase assessed as growth inhibition incubated for 96 hrs by CPRG dye based assay; format: functional, organism-based
[3] = Toxicity against human HepG2 cells incubated for 48 hrs by MTT assay; format: cell-based; details: read-out: TC50
[4] = system: Leishmania major; experiment: Antiparasite activity against Leishmania major promastigotes assessed as growth inhibition incubated for 44 hrs by alamar blue dye based fluorescence assay; format: functional, organism-based
[5] = system: Leishmania major; experiment: Antiparasite activity against luciferase-expressing Leishmania major amastigotes isolated from infected in mouse RAW264.7 cells assessed as growth inhibition incubated for 96 hrs by luciferase reporter gene assay; format: functional, organism-based; details: RAW264.7, 96 h
[6] = system: Plasmodium falciparum; experiment: Antiparasite activity against drug resistant Plasmodium falciparum C235 assessed as growth inhibition incubated for 72 hrs by SYBR green fluorescence assay; format: functional, organism-based; details: C235, 72 h
[7] = system: Trypanosoma brucei; experiment: Antiparasite activity against Trypanosoma brucei 427 assessed as growth inhibition incubated for 48 hrs by PrestoBlue based fluorescence assay; format: functional, organism-based; details: Trypanosoma brucei, 427, 48 h
[8] = system: Plasmodium falciparum; experiment: Antiparasite activity against drug resistant Plasmodium falciparum W2 assessed as growth inhibition incubated for 72 hrs by SYBR green fluorescence assay; format: functional, organism-based; details: W2, 72 h

CN1CCCN(S(=O)(=O)c2ccc(-c3ccc4ncnc(Nc5ccc(OCc6cccc(F)c6)c(Cl)c5)c4c3)cc2)CC1
EC50 [1]: 46 nM | EC50 [2]: 510 nM | CC50 at 48 h [3]: 1100 nM | EC50 [4]: 3600 nM | EC50 [5]: 2100 nM

CN1CCN(S(=O)(=O)c2ccc(-c3cc4c(Nc5ccc(OCc6cccc(F)c6)c(Cl)c5)ncnc4s3)cc2)CC1
CC50 at 48 h [3]: > 15000 nM

CN1CCCN(S(=O)(=O)c2ccc(-c3cc4ncnc(Nc5ccc(OCc6cccc(F)c6)c(Cl)c5)c4s3)cc2)CC1
CC50 at 48 h [3]: > 15000 nM

CN1CCCN(S(=O)(=O)c2ccc(-c3cc4c(Nc5ccc(OCc6cccc(F)c6)c(Cl)c5)ncnc4s3)cc2)CC1
CC50 at 48 h [3]: > 15000 nM

Fc1cccc(COc2ccc(Nc3ccnc4ccc(-c5cccc(N6CCOCC6)c5)cc34)cc2Cl)c1
EC50 [1]: 35 nM | EC50 [6]: 43 nM | EC50 [7]: 1000 nM | EC50 [2]: 6600 nM | CC50 at 48 h [3]: 10000 nM | EC50 [4]: 900 nM | EC50 [8]: 96 nM | EC50 [5]: 4000 nM

Fc1cccc(COc2ccc(Nc3ccnc4cc(-c5cccc(N6CCOCC6)c5)ccc34)cc2Cl)c1
EC50 [1]: 61 nM | EC50 [6]: 80 nM | EC50 [7]: 1200 nM | EC50 [2]: 2700 nM | CC50 at 48 h [3]: > 5000 nM | EC50 [4]: 1400 nM | EC50 [8]: 180 nM | EC50 [5]: 3700 nM

O=S(=O)(c1ccc(-c2ccc3c(Nc4ccc(OCc5ccccc5)c(Cl)c4)ccnc3c2)cc1)N1CCOCC1
EC50 [1]: 16 nM | EC50 [6]: 18 nM | EC50 [7]: 240 nM | EC50 [2]: 3500 nM | CC50 at 48 h [3]: > 3000 nM | EC50 [4]: > 1500 nM | EC50 [8]: 44 nM | EC50 [5]: > 1500 nM

CN1CCN(S(=O)(=O)c2ccc(-c3ccc4nccc(Nc5ccc(OCc6cccc(F)c6)c(Cl)c5)c4c3)cc2)CC1
EC50 [1]: > 16000 nM | EC50 [6]: > 16000 nM | EC50 [7]: 460 nM | EC50 [2]: 5300 nM | CC50 at 48 h [3]: 6400 nM | EC50 [4]: 600 nM | EC50 [8]: > 16000 nM | EC50 [5]: 2000 nM

CN1CCCN(S(=O)(=O)c2ccc(-c3ccc4nccc(Nc5ccc(OCc6cccc(F)c6)c(Cl)c5)c4c3)cc2)CC1
EC50 [1]: 86 nM | EC50 [6]: 110 nM | EC50 [7]: 140 nM | EC50 [2]: 930 nM | CC50 at 48 h [3]: 4300 nM | EC50 [4]: 400 nM | EC50 [8]: 81 nM | EC50 [5]: 2300 nM

CN1CCCN(S(=O)(=O)c2ccc(-c3ccc4c(Nc5ccc(OCc6cccc(F)c6)c(Cl)c5)ccnc4c3)cc2)CC1
EC50 [1]: 94 nM | EC50 [6]: 67 nM | EC50 [7]: 87 nM | EC50 [2]: 730 nM | CC50 at 48 h [3]: 5000 nM | EC50 [4]: 400 nM | EC50 [8]: 66 nM | EC50 [5]: 890 nM

O=S(=O)(c1ccc(-c2ccc3ccnc(Nc4ccc(OCc5ccccc5)c(Cl)c4)c3c2)cc1)N1CCOCC1
EC50 [1]: 870 nM | EC50 [6]: 4000 nM | EC50 [7]: > 2500 nM | EC50 [2]: > 50000 nM | CC50 at 48 h [3]: > 25000 nM | EC50 [4]: > 15000 nM | EC50 [8]: 5500 nM | EC50 [5]: > 15000 nM

O=S(=O)(c1ccc(-c2ccc3c(Nc4ccc(OCc5ccccc5)c(Cl)c4)nccc3c2)cc1)N1CCOCC1
EC50 [1]: 3400 nM | EC50 [6]: 3400 nM | EC50 [7]: 91 nM | EC50 [2]: > 50000 nM | CC50 at 48 h [3]: > 5000 nM | EC50 [4]: > 15000 nM | EC50 [8]: 3400 nM | EC50 [5]: > 3000 nM

CN1CCN(S(=O)(=O)c2ccc(-c3ccc4ccnc(Nc5ccc(OCc6cccc(F)c6)c(Cl)c5)c4c3)cc2)CC1
EC50 [1]: 40 nM | EC50 [6]: 89 nM | EC50 [7]: 1800 nM | EC50 [2]: > 50000 nM | CC50 at 48 h [3]: > 15000 nM | EC50 [4]: > 15000 nM | EC50 [8]: 200 nM | EC50 [5]: > 15000 nM

CN1CCN(S(=O)(=O)c2ccc(-c3ccc4c(Nc5ccc(OCc6cccc(F)c6)c(Cl)c5)nccc4c3)cc2)CC1
EC50 [1]: 110 nM | EC50 [6]: 180 nM | EC50 [7]: 100 nM | EC50 [2]: > 50000 nM | CC50 at 48 h [3]: > 15000 nM | EC50 [4]: 2700 nM | EC50 [8]: 360 nM | EC50 [5]: > 15000 nM

CN1CCCN(S(=O)(=O)c2ccc(-c3ccc4ccnc(Nc5ccc(OCc6cccc(F)c6)c(Cl)c5)c4c3)cc2)CC1
EC50 [1]: 86 nM | EC50 [6]: 100 nM | EC50 [7]: 730 nM | EC50 [2]: 4700 nM | CC50 at 48 h [3]: > 15000 nM | EC50 [4]: 1300 nM | EC50 [8]: 270 nM | EC50 [5]: 2200 nM

CN1CCCN(S(=O)(=O)c2ccc(-c3ccc4c(Nc5ccc(OCc6cccc(F)c6)c(Cl)c5)nccc4c3)cc2)CC1
EC50 [1]: 410 nM | EC50 [6]: 1000 nM | EC50 [7]: 390 nM | EC50 [2]: 33000 nM | CC50 at 48 h [3]: > 15000 nM | EC50 [4]: 440 nM | EC50 [8]: 2200 nM | EC50 [5]: 4400 nM

Fc1cccc(COc2ccc(Nc3cnnc4ccc(-c5cccc(N6CCOCC6)c5)cc34)cc2Cl)c1
EC50 [1]: 540 nM | EC50 [6]: 690 nM | EC50 [7]: 1100 nM | EC50 [2]: > 50000 nM | CC50 at 48 h [3]: > 15000 nM | EC50 [4]: > 15000 nM | EC50 [8]: 1500 nM | EC50 [5]: > 15000 nM

Fc1cccc(COc2ccc(Nc3cnnc4cc(-c5cccc(N6CCOCC6)c5)ccc34)cc2Cl)c1
EC50 [1]: 200 nM | EC50 [6]: 410 nM | EC50 [7]: 890 nM | EC50 [2]: 45000 nM | CC50 at 48 h [3]: 11000 nM | EC50 [4]: 9800 nM | EC50 [8]: 230 nM | EC50 [5]: > 15000 nM

O=S(=O)(c1ccc(-c2ccc3nncc(Nc4ccc(OCc5ccccc5)c(Cl)c4)c3c2)cc1)N1CCOCC1
EC50 [1]: 820 nM | EC50 [6]: 1400 nM | EC50 [7]: 1200 nM | EC50 [2]: > 50000 nM | CC50 at 48 h [3]: > 15000 nM | EC50 [4]: > 15000 nM | EC50 [8]: 940 nM | EC50 [5]: > 15000 nM

O=S(=O)(c1ccc(-c2ccc3c(Nc4ccc(OCc5ccccc5)c(Cl)c4)cnnc3c2)cc1)N1CCOCC1
EC50 [1]: 150 nM | EC50 [6]: 300 nM | EC50 [7]: 1200 nM | EC50 [2]: 15000 nM | CC50 at 48 h [3]: > 11000 nM | EC50 [4]: > 15000 nM | EC50 [8]: 530 nM | EC50 [5]: > 15000 nM

CN1CCN(S(=O)(=O)c2ccc(-c3ccc4nncc(Nc5ccc(OCc6cccc(F)c6)c(Cl)c5)c4c3)cc2)CC1
EC50 [1]: 130 nM | EC50 [6]: 140 nM | EC50 [7]: 980 nM | EC50 [2]: > 50000 nM | CC50 at 48 h [3]: > 15000 nM | EC50 [4]: > 15000 nM | EC50 [8]: 290 nM | EC50 [5]: 1900 nM

Fc1cccc(COc2ccc(Nc3ncnc4cc(-c5cccc(N6CCOCC6)c5)sc34)cc2Cl)c1
CC50 at 48 h [3]: > 15000 nM

Fc1cccc(COc2ccc(Nc3ncnc4sc(-c5cccc(N6CCOCC6)c5)cc34)cc2Cl)c1
CC50 at 48 h [3]: > 15000 nM

O=S(=O)(c1ccc(-c2cc3ncnc(Nc4ccc(OCc5ccccc5)c(Cl)c4)c3s2)cc1)N1CCOCC1
CC50 at 48 h [3]: > 5000 nM

O=S(=O)(c1ccc(-c2cc3c(Nc4ccc(OCc5ccccc5)c(Cl)c4)ncnc3s2)cc1)N1CCOCC1
CC50 at 48 h [3]: > 15000 nM

CN1CCN(S(=O)(=O)c2ccc(-c3cc4ncnc(Nc5ccc(OCc6cccc(F)c6)c(Cl)c5)c4s3)cc2)CC1
CC50 at 48 h [3]: > 15000 nM

C[C@@H]1[C@H](O)[C@@H](C)/C=C/C=C/C=C/C=C/C=C/C=C/C=C/[C@H](O[C@@H]2O[C@H](C)[C@@H](O)[C@H](N)[C@@H]2O)C[C@@H]2O[C@](O)(C[C@@H](O)C[C@@H](O)[C@H](O)CC[C@@H](O)C[C@@H](O)CC(=O)O[C@H]1C)C[C@H](O)[C@H]2C(=O)O [AMPHOTERICIN B]
EC50 [4]: 89 nM | EC50 [5]: 47 nM

O=C(Cn1ccnc1[N+](=O)[O-])NCc1ccccc1 [BENZNIDAZOLE]
EC50 [2]: 1200 nM

Cc1ccc(C(=O)Nc2ccc(S(=O)(=O)O)c3cc(S(=O)(=O)O)cc(S(=O)(=O)O)c23)cc1NC(=O)c1cccc(NC(=O)Nc2cccc(C(=O)Nc3cc(C(=O)Nc4ccc(S(=O)(=O)O)c5cc(S(=O)(=O)O)cc(S(=O)(=O)O)c45)ccc3C)c2)c1 [SURAMIN]
EC50 [7]: 40 nM
